Measurements taken from ChEMBL document CHEMBL1145105, “Synthesis and benzodiazepine receptor affinity of pyrazolo[1,5-a]pyrimidine derivatives. 3. New 6-(3-thienyl) series as alpha 1 selective ligands” (J Med Chem, 2003).
pKi: −log10 of the molar value. Several values for one entry are separate records, joined by “and”; a condition that tells them apart may be missing. Equal values may be shown once.

Tests used:
[1] = test system: Mus musculus; test: Muscle relaxant effect in mice at peroral dose of 0.3 mg/kg using rotarod test, value was expressed as no. of falls in 30 seconds; format: functional; details: route oral
[2] = test system: Mus musculus; test: Antianxiety activity was tested in mice at peroral dose of 1 mg/kg using light/dark box test; format: functional; details: route oral
[3] = test system: Mus musculus; test: Antianxiety activity was tested in mice at peroral dose of 0.3 mg/kg using light/dark box test; format: functional; details: route oral
[4] = test system: Mus musculus; test: Antianxiety activity was tested in mice at peroral dose of 1 mg/kg in light; format: functional; details: route oral
[5] = test system: Mus musculus; test: Muscle relaxant effect in mice at peroral dose of 1 mg/kg using rotarod test, value was expressed as no. of falls in 30 seconds; format: functional; details: route oral
[6] = test system: Mus musculus; test: Antianxiety activity was tested in mice at peroral dose of 0.3 mg/kg in light; format: functional; details: route oral
[7] = target: T1, GABA-A receptor; anion channel (Bos taurus) (UniProt P10063+P08220+P20237+P08219+P10064+P22300); test: Percent inhibition of [3H]Ro-151788 binding to bovine brain GABA-A central benzodiazepine receptor at 0.2 nM
[8] = target: GABA-A receptor; anion channel; test: Inhibition of [3H]Ro-151788 binding to GABA-A central benzodiazepine receptor of bovine brain membranes; format: cell membranes, Bos taurus
[9] = target: T2, GABA A receptor alpha-2/beta-2/gamma-2 (Rattus norvegicus, UniProt P18508+P23576+P63138); test: Binding affinity for recombinant rat GABA-A receptor alpha-2-beta-2-gamma-2 subunits expressed in HEK293 cells; format: cell-based
[10] = target: GABA-A receptor; alpha-1/beta-2/gamma-2 (Rattus norvegicus, UniProt P18508+P62813+P63138); test: Binding affinity for recombinant rat GABA-A receptor alpha-1-beta-2-gamma-2 subunits expressed in HEK293 cells; format: cell-based
[11] = target: T1, GABA-A receptor; anion channel (Bos taurus); test: Relative binding to GABA-A receptor in the presence and absence of GABA (GABA shift), Ki(-GABA)/Ki(+GABA); format: protein-complex assay
[12] = target: GABA A receptor alpha-5/beta-3/gamma-2 (Rattus norvegicus, UniProt P18508+P19969+P63079); test: Binding affinity for recombinant rat GABA-A receptor alpha-5-beta-3-gamma-2 subunits expressed in HEK 293 cells; format: cell-based, HEK293
[13] = test system: Mus musculus; test: Antianxiety activity was tested in mice at dose of 10 mg/kg in light; format: functional
[14] = test system: Mus musculus; test: Percent anticonvulsant activity against PTZ induced attack in mice at dose of 10 mg/kg; format: functional
[15] = test system: Mus musculus; test: Antianxiety activity was tested in mice at dose of 30 mg/kg using light/dark box test; format: functional
[16] = test system: Mus musculus; test: Percent anticonvulsant activity against PTZ induced attack in mice at dose of 30 mg/kg; format: functional
[17] = test system: Mus musculus; test: Muscle relaxant effect in mice at dose of 30 mg/kg using rotarod test, value was expressed as no. of falls in 30 seconds; format: functional
[18] = test system: Mus musculus; test: Synergic sedative effect was tested in mice using the Hole Board test at peroral dose of 10 mg/kg, value was expressed in plane; format: functional; details: route oral
[19] = test system: Mus musculus; test: Synergic sedative effect was tested in mice using the Hole Board test at peroral dose of 10 mg/kg, value was expressed in holes; format: functional; details: route oral
[20] = test system: Mus musculus; test: Antianxiety activity was tested in mice at dose of 30 mg/kg in light; format: functional
[21] = target: GABA A receptor alpha-3/beta-2/gamma-2 (Rattus norvegicus, UniProt P18508+P20236+P63138); test: Binding affinity for recombinant rat GABA-A receptor alpha-3-beta-2-gamma-2 subunits expressed in HEK293 cells; format: cell-based
[22] = test system: Mus musculus; test: Antianxiety activity was tested in mice at dose of 10 mg/kg using light/dark box test; format: functional
[23] = test system: Mus musculus; test: Muscle relaxant effect in mice at dose of 10 mg/kg using rotarod test, value was expressed as no. of falls in 30 seconds; format: functional
[24] = test system: Mus musculus; test: Synergic sedative effect was tested in mice using the Hole Board test at peroral dose of 30 mg/kg, value was expressed in plane; format: functional; details: route oral
[25] = test system: Mus musculus; test: Synergic sedative effect was tested in mice using the Hole Board test at peroral dose of 30 mg/kg, value was expressed in holes; format: functional; details: route oral
[26] = target: T2, GABA A receptor alpha-2/beta-2/gamma-2; test: Binding affinity for recombinant rat alpha-2-beta-2-gamma-2 GABA-A receptor subunits expressed in HEK293 cells; format: cell-based
[27] = test system: Mus musculus; test: Muscle relaxant effect in mice at dose of 3 mg/kg using rotarod test, value was expressed as no. of falls in 30 seconds; format: functional
[28] = test system: Mus musculus; test: Synergic sedative effect was tested in mice using the Hole Board test at peroral dose of 3 mg/kg, value was expressed in holes; format: functional; details: route oral
[29] = test system: Mus musculus; test: Synergic sedative effect was tested in mice using the Hole Board test at peroral dose of 3 mg/kg, value was expressed in plane; format: functional; details: route oral
[30] = test system: Mus musculus; test: Percent anticonvulsant activity against PTZ induced attack in mice at dose of 3 mg/kg; format: functional

Sequence of GABA-A receptor; alpha-1/beta-2/gamma-2 (P18508 whole entry): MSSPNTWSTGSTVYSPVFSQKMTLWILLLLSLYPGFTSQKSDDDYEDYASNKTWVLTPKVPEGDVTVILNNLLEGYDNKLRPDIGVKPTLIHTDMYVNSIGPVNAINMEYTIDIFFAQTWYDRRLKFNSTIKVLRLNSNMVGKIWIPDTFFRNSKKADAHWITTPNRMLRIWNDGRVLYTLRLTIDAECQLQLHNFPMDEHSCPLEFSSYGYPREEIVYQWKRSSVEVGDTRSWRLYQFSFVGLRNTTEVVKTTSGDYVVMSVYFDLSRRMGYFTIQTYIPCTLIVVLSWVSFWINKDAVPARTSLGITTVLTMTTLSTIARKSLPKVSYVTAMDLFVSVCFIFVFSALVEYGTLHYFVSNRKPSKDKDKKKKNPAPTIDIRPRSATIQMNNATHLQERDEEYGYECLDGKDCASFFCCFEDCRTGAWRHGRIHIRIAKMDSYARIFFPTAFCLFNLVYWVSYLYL
Sequence of GABA-A receptor; alpha-1/beta-2/gamma-2 (P62813 whole entry): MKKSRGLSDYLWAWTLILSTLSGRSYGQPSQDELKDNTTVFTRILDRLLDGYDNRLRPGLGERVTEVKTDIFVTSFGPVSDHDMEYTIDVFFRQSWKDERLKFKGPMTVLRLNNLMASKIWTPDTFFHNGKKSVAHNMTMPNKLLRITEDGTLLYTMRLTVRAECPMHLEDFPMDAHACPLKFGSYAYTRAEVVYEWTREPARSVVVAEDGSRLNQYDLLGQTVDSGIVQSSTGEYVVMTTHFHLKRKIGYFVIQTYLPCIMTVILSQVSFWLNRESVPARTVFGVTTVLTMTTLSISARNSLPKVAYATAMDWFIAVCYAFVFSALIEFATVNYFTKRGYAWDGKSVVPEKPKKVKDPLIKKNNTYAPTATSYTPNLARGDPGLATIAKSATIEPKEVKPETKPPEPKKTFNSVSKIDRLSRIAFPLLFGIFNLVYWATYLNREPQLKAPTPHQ
Sequence of GABA-A receptor; alpha-1/beta-2/gamma-2 (P63138 whole entry): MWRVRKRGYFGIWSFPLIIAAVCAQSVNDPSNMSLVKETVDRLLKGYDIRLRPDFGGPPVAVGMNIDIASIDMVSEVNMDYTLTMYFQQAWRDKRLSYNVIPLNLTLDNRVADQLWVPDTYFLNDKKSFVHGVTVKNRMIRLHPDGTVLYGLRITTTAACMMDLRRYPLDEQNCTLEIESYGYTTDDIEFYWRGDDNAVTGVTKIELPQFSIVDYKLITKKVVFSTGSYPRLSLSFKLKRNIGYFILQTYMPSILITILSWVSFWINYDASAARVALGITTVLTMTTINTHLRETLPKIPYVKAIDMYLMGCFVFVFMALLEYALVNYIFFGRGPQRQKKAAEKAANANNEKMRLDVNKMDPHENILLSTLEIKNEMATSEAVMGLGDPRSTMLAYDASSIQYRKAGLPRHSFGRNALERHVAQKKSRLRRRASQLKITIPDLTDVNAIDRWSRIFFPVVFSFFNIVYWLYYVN
Sequence of GABA A receptor alpha-5/beta-3/gamma-2 (P18508 whole entry): as the sequence (P18508 whole entry) above
Sequence of GABA A receptor alpha-5/beta-3/gamma-2 (P19969 whole entry): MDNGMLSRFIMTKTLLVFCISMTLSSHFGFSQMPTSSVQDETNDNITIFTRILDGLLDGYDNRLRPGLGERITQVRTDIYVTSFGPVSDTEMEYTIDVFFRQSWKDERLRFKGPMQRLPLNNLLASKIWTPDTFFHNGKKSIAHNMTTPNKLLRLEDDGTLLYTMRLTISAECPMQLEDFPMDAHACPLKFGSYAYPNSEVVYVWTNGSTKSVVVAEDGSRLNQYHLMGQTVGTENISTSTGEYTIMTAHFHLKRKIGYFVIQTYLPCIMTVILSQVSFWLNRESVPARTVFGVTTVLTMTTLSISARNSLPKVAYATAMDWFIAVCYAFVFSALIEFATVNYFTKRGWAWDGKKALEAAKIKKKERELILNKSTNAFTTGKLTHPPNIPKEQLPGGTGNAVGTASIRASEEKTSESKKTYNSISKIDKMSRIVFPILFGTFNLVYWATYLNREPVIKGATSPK
Sequence of GABA A receptor alpha-5/beta-3/gamma-2 (P63079 whole entry): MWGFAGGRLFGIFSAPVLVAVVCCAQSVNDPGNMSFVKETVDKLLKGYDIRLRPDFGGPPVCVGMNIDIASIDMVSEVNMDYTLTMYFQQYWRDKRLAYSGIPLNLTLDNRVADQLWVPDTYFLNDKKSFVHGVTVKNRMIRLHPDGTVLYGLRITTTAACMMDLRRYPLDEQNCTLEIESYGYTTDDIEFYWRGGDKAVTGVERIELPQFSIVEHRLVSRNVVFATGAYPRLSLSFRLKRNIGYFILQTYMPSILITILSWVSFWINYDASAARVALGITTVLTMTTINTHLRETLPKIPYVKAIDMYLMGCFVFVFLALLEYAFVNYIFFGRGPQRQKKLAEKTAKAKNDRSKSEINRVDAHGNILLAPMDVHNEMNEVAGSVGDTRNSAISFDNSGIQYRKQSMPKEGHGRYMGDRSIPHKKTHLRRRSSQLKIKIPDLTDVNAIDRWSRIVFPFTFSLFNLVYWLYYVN
T2 sequence (P18508 whole entry): as the sequence (P18508 whole entry) above
T2 sequence (P23576 whole entry): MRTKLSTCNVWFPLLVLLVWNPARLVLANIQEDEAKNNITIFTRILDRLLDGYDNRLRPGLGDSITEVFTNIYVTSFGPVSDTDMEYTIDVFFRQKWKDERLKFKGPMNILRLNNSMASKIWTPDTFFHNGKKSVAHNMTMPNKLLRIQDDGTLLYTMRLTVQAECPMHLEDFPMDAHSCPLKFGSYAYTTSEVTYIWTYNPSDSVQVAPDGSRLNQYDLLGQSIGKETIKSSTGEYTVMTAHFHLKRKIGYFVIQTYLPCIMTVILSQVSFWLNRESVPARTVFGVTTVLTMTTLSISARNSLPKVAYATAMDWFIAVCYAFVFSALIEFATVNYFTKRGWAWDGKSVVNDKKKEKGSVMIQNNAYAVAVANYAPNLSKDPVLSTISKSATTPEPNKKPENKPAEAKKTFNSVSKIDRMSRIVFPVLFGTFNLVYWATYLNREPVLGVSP
T2 sequence (P63138 whole entry): as the sequence (P63138 whole entry) above
Sequence of GABA A receptor alpha-3/beta-2/gamma-2 (P18508 whole entry): as the sequence (P18508 whole entry) above
Sequence of GABA A receptor alpha-3/beta-2/gamma-2 (P20236 whole entry): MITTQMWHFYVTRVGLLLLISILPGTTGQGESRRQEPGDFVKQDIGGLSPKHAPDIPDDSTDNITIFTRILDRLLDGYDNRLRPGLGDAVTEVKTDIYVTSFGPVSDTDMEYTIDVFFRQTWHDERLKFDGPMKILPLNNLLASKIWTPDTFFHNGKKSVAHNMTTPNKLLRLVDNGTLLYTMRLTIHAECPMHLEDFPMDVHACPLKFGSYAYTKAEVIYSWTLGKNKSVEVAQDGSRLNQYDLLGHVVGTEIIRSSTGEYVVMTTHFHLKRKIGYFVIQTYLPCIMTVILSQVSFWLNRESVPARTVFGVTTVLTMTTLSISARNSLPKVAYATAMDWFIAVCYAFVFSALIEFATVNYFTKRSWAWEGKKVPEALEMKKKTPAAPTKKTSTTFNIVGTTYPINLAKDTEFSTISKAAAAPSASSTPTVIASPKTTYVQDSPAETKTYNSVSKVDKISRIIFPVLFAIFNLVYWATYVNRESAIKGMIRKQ
Sequence of GABA A receptor alpha-3/beta-2/gamma-2 (P63138 whole entry): as the sequence (P63138 whole entry) above

SMILES | inhibition [7] [%] | pKi [8] | pKi [9] | pKi [10] | Ratio [11] | pKi [12] | Activity [14] [%] | No. of falls [23] | other results
CN1C(=O)CN=C(c2ccccc2)c2cc(Cl)ccc21 [DIAZEPAM] | – | – | – | – | – | – | – | – | No. of falls [1]: 0.5; No. of crosses [2]: 21.5; No. of crosses [3]: 22; Time [4]: 117.5 s; No. of falls [5]: 0.7; Time [6]: 85 s
Oc1c(-c2ccsc2)cnc2c(-c3ccc4ccccc4c3)cnn12 | 30 | – | – | – | – | – | – | – | –
Oc1c(-c2ccsc2)cnc2c(-c3cccnc3)cnn12 | 100 | 7.52 | 6.50 | 7.60 | 1.51 | 6.68 | – | – | –
Oc1c(-c2ccsc2)cnc2c(Cc3ccccc3)cnn12 | 55 | – | – | – | – | – | – | – | –
Oc1c(-c2ccsc2)cnc2c(-c3ccccc3)cnn12 | 94 | 6.95 | – | – | 1.71 | – | – | – | –
Oc1c(-c2ccsc2)cnc2c(-c3cccc(C(F)(F)F)c3)cnn12 | 96 | 8.24 | 6.27 | 8.00 | 2 | 6.68 | 29.4 | 0.1 | Time [13]: 69.4 s; No. of crosses [15]: 12.7; Activity [16]: 0%; No. of falls [17]: 0.2; No. of counts [18]: 139.6; No. of counts [19]: 60.7; Time [20]: 77.3 s; pKi [21]: 7.05; No. of crosses [22]: 17.1
Oc1c(-c2ccsc2)cnc2c(-c3ccsc3)cnn12 | 100 | 7.80 | 6.70 | 7.64 | 1.3 | 6.65 | 36.4 | 0 | Time [13]: 94.9 s; No. of crosses [15]: 11.8; Activity [16]: 9.1%; No. of falls [17]: 0.3; No. of counts [18]: 12.2; No. of counts [19]: 52.7; Time [20]: 72.3 s; pKi [21]: 6.71; No. of crosses [22]: 19.7
Oc1c(-c2ccsc2)cnc2c(-c3cccc(F)c3)cnn12 | 92 | 7.14 | – | – | 1.2 | – | – | – | –
Cc1cccc(-c2cnn3c(O)c(-c4ccsc4)cnc23)c1 | 97 | 7.59 | – | – | 2 | – | – | – | –
Oc1c(-c2ccsc2)cnc2c(-c3ccccn3)cnn12 | 98 | 8.41 | 6.03 | 8.15 | 1.1 | 6.13 | 19 | 0.3 | Time [13]: 90.6 s; No. of counts [24]: 110.4; No. of counts [25]: 50.9; Activity [16]: 10%; No. of falls [17]: 0.3; No. of counts [18]: 96.6; No. of counts [19]: 55.9; No. of crosses [22]: 19.6
Oc1c(-c2ccsc2)cnc2c(-c3cccc(Br)c3)cnn12 | 87 | 8.06 | 6.54 | 8.00 | 1.72 | 7.66 | – | – | pKi [21]: 6.95
Oc1c(-c2ccsc2)cnc2c(-c3ccc(F)cc3)cnn12 | 99 | 7.51 | – | – | 0.9 | – | – | – | –
Oc1c(-c2ccsc2)cnc2c(-c3cccc4ccccc34)cnn12 | 92 | 7.40 | < 5.00 | 7.33 | 1.02 | 6.81 | – | – | –
Cc1ccc(-c2nc3ccc(C)cn3c2CC(=O)N(C)C)cc1.Oc1c(-c2ccsc2)cnc2c(-c3ccccn3)cnn12 | – | – | – | – | – | – | 90 | 1.1 | No. of counts ([18]; 10 mg/kg): 68 and 28.7; No. of counts ([19]; 10 mg/kg): 25.8 and 9.38
COc1cccc(-c2cnn3c(O)c(-c4ccsc4)cnc23)c1 | 92 | 7.37 | – | 7.37 | 1.25 | 6.13 | – | – | pKi [26]: 6.08
Cc1ccc(-c2nc3ccc(C)cn3c2CC(=O)N(C)C)cc1 [ZOLPIDEM] | – | – | – | – | – | – | 90 | 0.8 | No. of falls [27]: 0.2; No. of counts [28]: 45; No. of counts [29]: 84.7; No. of counts [18]: 54.4; No. of counts [19]: 26.3; Activity [30]: 70%
CN1C(=O)CN=C(c2ccccc2)c2cc(Cl)ccc21.Oc1c(-c2ccsc2)cnc2c(-c3ccccn3)cnn12 | – | – | – | – | – | – | 90 | 0.5 | Time [13]: 120.9 s; No. of counts [18]: 68; No. of counts [19]: 25.8; No. of crosses [22]: 26.2
